# Values of other authors as cited in patent US4280953A, “Glycosylated analogs of somatostatin” (The Salk Institute for Biological Studies, priority 1979, dated 1981).
# Non-standard residues stand in square brackets, D forms with d.
# System: secretion of insulin, glucogon pancreatic polypeptide and gastrin
# Conditions: human subjects, subcutaneous administration
substance,measurement,value
H-CFF[dW]KTFC-OH (cysteine pairing not given here),"inhibitory activity on the secretion of insulin, glucogon pancreatic polypeptide and gastrin",prolonged inhibitory activity
